Laboratory results from the supplement of paper PMC10307832.

Experiments:
Test in all cases: relative viability (nuclei count vs DMSO), 5 days (fraction); higher = more cells survive
CUDC-101 + Pictilisib = compound: C#Cc1cccc(Nc2ncnc3cc(OC)c(OCCCCCCC(=O)NO)cc23)c1 [CUDC-101] + CS(=O)(=O)N1CCN(Cc2cc3nc(-c4cccc5[nH]ncc45)nc(N4CCOCC4)c3s2)CC1 [Pictilisib] (partner 1 µM)
Procedure, shortened: (§1)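 Five library-drug doses in √10 steps were combined with a fixed anchor-drug dose, or a single drug was given alone, by pin tool to lung cancer cell lines in 1536-well plates the day after seeding. Nuclei were stained and counted after 5 days. Relative viability is the nuclei count in treated wells over that in vehicle wells, taken as the median of duplicate plates.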

[1] = compound: C1=CC=C2C(=C1)N=C(S2)C(C#N)C3=NC(=NC=C3)NCCC4=CN=CC=C4 + CCNC(=O)c1noc(-c2cc(C(C)C)c(O)cc2O)c1-c1ccc(CN2CCOCC2)cc1 [Luminespib] (partner 0.01 µM)
Procedure, shortened: as §1

[2] = compound: C1=CC=C2C(=C1)N=C(S2)C(C#N)C3=NC(=NC=C3)NCCC4=CN=CC=C4 + N=C(N)NC(=N)NCCc1ccccc1 [Phenformin] (partner 250 µM)
Procedure, shortened: as §1

[3] = compound: C1=CC=C2C(=C1)N=C(S2)C(C#N)C3=NC(=NC=C3)NCCC4=CN=CC=C4 + Nc1ncn([C@H]2C[C@H](O)[C@@H](CO)O2)c(=O)n1 [Decitabine] (partner 2 µM)
Procedure, shortened: as §1

Cell Line	relative viability (CUDC-101 + Pictilisib; first compound 0.01 µM)	relative viability (CUDC-101 + Pictilisib; first compound 0.03162 µM)	relative viability (CUDC-101 + Pictilisib; first compound 0.1 µM)	relative viability (CUDC-101 + Pictilisib; first compound 0.3162 µM)	relative viability (CUDC-101 + Pictilisib; first compound 1 µM)	relative viability ([1]; first compound 0.01581 µM)	relative viability ([1]; first compound 0.05 µM)	relative viability ([1]; first compound 0.1581 µM)	relative viability ([1]; first compound 0.5 µM)	relative viability ([2]; first compound 0.005 µM)	relative viability ([2]; first compound 0.01581 µM)	relative viability ([2]; first compound 0.05 µM)	relative viability ([2]; first compound 0.1581 µM)	relative viability ([2]; first compound 0.5 µM)	relative viability ([3]; first compound 0.005 µM)	relative viability ([3]; first compound 0.05 µM)	relative viability ([3]; first compound 0.1581 µM)	relative viability ([3]; first compound 0.5 µM)	relative viability ([3]; first compound 0.01581 µM)	relative viability ([1]; first compound 0.005 µM)
ABC-1	0.688	0.788	0.547	0.533	0.212	0.736	0.374	0.855	0.737	0.245	0.22	0.241	0.219	0.251	0.915	0.906	1.15	1.13	–	–
NCI-H727	0.412	0.355	0.283	0.286	0.27	0.241	0.294	0.105	0.329	–	0.577	0.45	0.55	0.641	0.992	0.983	1	0.786	0.879	–
PC-3 [JPC-3]	0.756	0.632	0.277	0.348	0.245	0.71	0.693	0.724	0.561	0.502	0.485	0.456	0.48	0.419	0.952	0.758	0.825	0.762	–	0.681
NCI-H1792	0.361	0.226	0.28	0.316	0.155	0.462	0.453	0.255	0.6	–	–	0.286	0.697	0.388	–	0.638	0.675	0.388	0.736	–
NCI-H1355	0.485	0.44	0.491	0.38	0.277	0.832	0.765	0.763	0.568	0.41	0.437	0.412	0.436	0.412	0.367	0.381	0.358	0.366	0.376	0.618
HCC-827	1.07	0.53	0.368	0.287	0.262	0.833	0.579	1.13	0.785	0.376	0.455	0.358	0.46	0.422	0.318	0.319	0.399	0.328	0.322	0.464
NCI-H1944	0.319	0.311	0.32	0.324	0.298	0.854	0.558	0.636	0.759	0.159	0.227	0.206	0.234	0.203	0.404	0.412	0.433	0.388	0.497	0.739
NCI-H2405	0.462	0.419	0.642	0.624	0.336	0.638	0.654	0.655	0.809	0.362	0.364	0.358	0.455	0.407	0.658	0.737	0.689	0.725	0.771	0.708
NCI-H650	0.856	0.888	1.05	0.705	0.51	–	0.724	0.825	0.863	0.49	–	0.483	0.452	0.505	0.316	0.319	0.338	0.325	0.356	0.784
NCI-H838	0.516	0.508	0.683	0.628	0.397	0.368	0.252	0.367	0.273	0.326	0.573	0.527	0.717	0.39	0.435	0.425	0.47	0.445	0.461	0.327
NCI-H520	0.307	–	0.305	0.251	0.214	0.201	0.214	0.224	0.198	0.494	0.472	0.556	0.636	0.532	0.46	0.482	0.616	0.513	0.449	0.237
NCI-H358	0.354	0.37	0.349	0.397	0.258	0.465	0.296	0.475	0.185	0.216	0.329	0.334	0.404	0.258	0.234	0.221	0.216	0.206	0.21	0.248
HOP-62	0.758	0.696	0.753	0.582	0.4	0.948	0.861	0.973	0.898	0.4	0.764	0.633	0.788	0.523	0.219	0.263	0.234	0.248	0.184	0.749
NCI-H2170	0.317	0.297	0.289	0.275	0.169	0.803	0.621	1.01	0.894	0.396	0.405	0.446	0.417	0.384	0.419	0.425	0.468	0.488	0.46	0.702
NCI-H1651	0.55	0.595	0.689	0.605	0.328	0.647	1.02	1.09	0.705	0.281	0.352	0.364	0.403	0.337	0.546	0.684	0.711	0.603	0.557	0.752
NCI-H460	0.375	0.358	0.315	0.453	0.287	0.0289	0.031	0.0329	0.0322	0.281	0.57	0.503	0.695	0.29	–	0.529	0.592	0.464	0.612	0.0281
NCI-H1734	0.499	0.488	0.452	0.437	0.285	0.253	0.184	0.185	0.188	–	0.44	0.375	0.471	0.392	0.453	0.522	0.495	0.488	0.49	–

Cell Line	relative viability (CUDC-101 + Pictilisib; first compound 0.01 µM)	relative viability (CUDC-101 + Pictilisib; first compound 0.03162 µM)	relative viability (CUDC-101 + Pictilisib; first compound 0.1 µM)	relative viability (CUDC-101 + Pictilisib; first compound 0.3162 µM)	relative viability (CUDC-101 + Pictilisib; first compound 1 µM)	relative viability ([1]; first compound 0.01581 µM)	relative viability ([1]; first compound 0.05 µM)	relative viability ([1]; first compound 0.1581 µM)	relative viability ([1]; first compound 0.5 µM)	relative viability ([2]; first compound 0.005 µM)	relative viability ([2]; first compound 0.01581 µM)	relative viability ([2]; first compound 0.05 µM)	relative viability ([2]; first compound 0.1581 µM)	relative viability ([2]; first compound 0.5 µM)	relative viability ([3]; first compound 0.005 µM)	relative viability ([3]; first compound 0.05 µM)	relative viability ([3]; first compound 0.1581 µM)	relative viability ([3]; first compound 0.5 µM)	relative viability ([3]; first compound 0.01581 µM)	relative viability ([1]; first compound 0.005 µM)
NCI-H1915	1	0.907	0.882	0.924	0.531	0.933	0.826	0.876	0.601	0.312	0.37	0.356	0.398	0.353	–	0.239	0.264	0.27	0.259	0.464
NCI-H661	0.477	0.422	0.476	0.487	0.358	0.917	0.918	0.926	0.933	0.231	0.255	0.291	0.291	0.277	0.467	0.529	0.622	0.589	0.52	0.902
NCI-H1975	0.336	0.323	0.265	0.24	0.192	0.202	0.246	0.171	0.225	0.301	0.42	0.404	0.447	0.359	0.436	0.334	0.432	0.434	0.341	–
NCI-H2087	0.985	1.03	1.11	1.11	0.603	0.159	0.222	0.2	0.15	0.472	0.495	0.471	0.623	0.426	0.255	0.345	0.367	0.282	0.266	0.163
LCLC-97TM1	0.276	0.283	0.192	0.226	0.144	0.896	0.795	0.947	0.685	0.429	0.417	0.403	0.431	0.407	0.192	0.293	0.237	0.222	0.215	0.748
EPLC-272H	0.449	0.434	0.275	0.244	0.18	0.229	0.169	0.392	0.302	0.225	0.243	0.275	0.286	0.311	0.501	0.36	0.385	0.309	0.337	0.248
NCI-H1755	0.406	0.409	0.444	0.41	0.264	0.406	0.262	0.576	0.61	0.617	0.641	0.621	0.695	0.607	0.673	0.683	0.75	0.7	0.789	0.458
H3255	0.618	0.382	0.143	0.181	0.0818	0.884	0.916	1.11	0.944	0.385	0.354	0.402	0.62	0.366	0.574	0.561	0.639	0.726	0.561	0.779
NCI-H441	0.694	0.537	0.561	0.497	0.401	0.308	0.351	0.365	0.301	–	0.993	1	0.913	0.79	0.267	0.252	0.246	0.239	0.303	–
NCI-H1793	0.302	0.43	0.248	0.375	0.273	0.141	0.182	0.158	0.22	0.382	0.369	0.328	0.454	0.355	–	0.424	0.538	0.465	0.521	0.16
LK-2	0.593	0.481	0.497	0.59	0.312	0.181	0.209	0.176	0.194	0.392	0.289	0.396	0.58	0.33	0.27	0.39	0.352	0.352	0.288	0.206
SW 1573	0.582	0.507	0.587	0.532	0.313	0.292	0.221	0.275	0.193	0.251	0.395	–	0.484	0.382	0.36	0.252	0.436	0.504	0.497	0.317
SK-MES-1	0.356	0.34	0.317	0.256	0.184	0.937	0.669	0.962	0.85	0.677	0.776	0.648	0.767	0.62	0.48	0.372	0.409	0.41	0.405	1.16
NCI-H2023	0.245	0.223	0.257	0.226	0.151	1	0.901	1.03	0.765	0.384	0.439	0.424	0.47	0.423	0.245	0.209	0.245	0.243	0.236	0.994
ChaGo-K-1	1.03	1.04	0.784	0.746	0.568	0.678	0.594	0.693	0.67	–	0.373	0.48	0.54	0.536	0.488	0.518	0.542	0.511	0.53	–
NCI-H2126	0.501	0.545	0.432	0.446	0.315	0.87	0.73	0.997	0.836	0.536	0.529	0.505	0.543	0.529	0.495	0.565	0.546	0.577	0.579	0.561
